Data: paper PMC11065314, “Identification of compounds that cause axonal dieback without cytotoxicity in dorsal root ganglia explants and intervertebral disc cells with potential to treat pain via denervation” (PLOS ONE, 2024)
Where “and” joins values, the source holds several entries; their conditions need not be identical. Equal values may be shown once. Where a name gives a salt, the structure may show the parent alone. Read-outs that look alike come from different tables or passages of the source.

Key:
adult rat DRG explants = format: cell-based
[1] = Quantification of viable NP cells (LIVE/DEAD staining); format: cell-based, human; settings: both sexes, human, human nucleus pulposus (NP) cells; 10 to 500 nM, day 3 post-treat; read-out: Percentage of viable cells
Experimental: (§1) Nucleus pulposus (NP) cells are native matrix-producing cells at the core of intervertebral discs. To repurpose axonal dieback compounds to denervate aberrant nerve fibers in discs related to chronic LBP, the cytocompatibility of these compounds with NP cells must be evaluated. Human NP cells (Sciencell, 4800) from donor 1 (Lot #5954) and donor 2 (Lot# 21579) were cultured according to previously established protocol in our lab adapted from manufacturer’s instructions. Briefly, passage three cells from both donors were expanded in Poly-L-lysine (PLL) (Sciencell, 413) coated T75 flasks. Cells were then lifted and reseeded at 5,000 cells/cm^2 onto two PLL-coated 48-well plates (Greiner Bio-One, 677180) and allowed to attach overnight before treating with Pyr or Vcr. One plate was used for LIVE/DEAD staining and the other plate was used for AlamarBlue assay as described below. Complete NP cell media (Sciencell, 4801) containing basal media supplemented with 1% penicillin-streptomycin, 1% growth supplement and 2% FBS were used for maintaining cells in culture. To mimic the hypoxic disc environment, NP cells were cultured in a hypoxia chamber (Stem Cell Technologies, 27310) with 5% CO2, 3.5% O2, 91.5% N2 (Airgas) during the entire culture and treatment incubation period.
(§2) Pyr stock solution was diluted in complete NP media to achieve final concentrations of 500 μM, 1 mM and 2 mM Pyr. 16.9 μg/mL and 169 μg/mL Vcr stock solutions were prepared in 1X PBS then diluted in complete NP media to achieve final concentrations of 10, 25, 50, 100 nM and 200, 500 nM, respectively. Cells were incubated with 250 μL of final treatment solutions in duplicate wells per donor for three days. Cells in negative control group were incubated with 250 μL of complete NP media with 0.55% v/v 1X PBS as solvent control. On day 3 post-treatment, brightfield images at 4X magnification were taken using a BioTek Cytation1 Plate Imager (Agilent) to verify cell proliferation and observe cell morphology. Three experimental replicates were performed for each cell donor.
(§3) On day 3 of incubation with drug, media treatment solutions were removed from each well and cells were carefully rinsed with 200 μL of sterile 1X PBS to remove excess media. NP cells were stained with 150 μL of 2 μM Calcein AM and 6 μM EtHD-1 solution from LIVE/DEAD Viability/Cytotoxicity Kit (Thermo Fisher Scientific, L3224) for 30 minutes at room temperature protected from light. After staining, cells were gently rinsed with 200 μL sterile 1X PBS to remove excess staining solution. Excitation and emission wavelengths for live cell fluorescence is 495 and 515 nm and dead cell fluorescence is 495 and 635 nm. Using a BioTek Cytation1 Plate Imager (Agilent), GFP filter cube (Agilent, 1225101, ex: 451.5–486.5 nm, em: 505.5–544.5 nm) and RFP filter cubes (Agilent, 1225103, ex: 511-551nm, em: 573–613 nm), fluorescent images at 4X magnification of four regions per well were taken. Gen5 v3.11 software (Agilent) was used to count green (live) and orange (dead) cells in fluorescent images. Dead NP cell staining was verified and evident by positive EtHD-1 orange staining in kill control wells where cells were treated with 70% EtOH for 10 minutes (S4 Fig). Percentage of live cells were calculated by calculating the percentage of live cells over total cell counts as shown in Eq 3.
(§4) Cellviability(%)=Livecellcounts/Livecellcounts+Deadcellcounts×100% (3)

Human NP cells = experiment: as above; format: cell-based
Experimental: as §1, §2, §3, §4

adult rat DRG neurons = test system: adult rat DRG neurons; design: method as in PMID 32388569; settings: below 1000 nM; cited from earlier work

## CC[C@]1(O)C[C@H]2CN(CCc3c([nH]c4ccccc34)[C@@](C(=O)OC)(c3cc4c(cc3OC)N(C=O)[C@H]3[C@@](O)(C(=O)OC)[C@H](OC(C)=O)[C@]5(CC)C=CCN6CC[C@]43[C@@H]65)C2)C1 [Vcr, vincristine sulfate]
Adult rat DRG explants
  Axon length ratio compared to PBS control: significantly lower axon length ratio than PBS control
  Day on which Caps axon length ratio threshold (0.45) was met: ≤ 1 days
  Original axon length left behind: less than 8.1%
Adult rat DRG explants; 100 nM
  Day on which Caps axon length ratio threshold (0.45) was met: ≤ 2 days
[1]
  viability at 3 days: > 81%
Human NP cells; 10 nM, donor 1, day 3, single wells (Exp, Rep)
  Percent live (%): 90.3134% and 98.5594% and 99.6198% and 83.3102% and 99.7603% and 99.2074%
Human NP cells; 25 nM, donor 1, day 3, single wells (Exp, Rep)
  Percent live (%): 89.2996% and 89.1566% and 99.4877% and 99.866% and 98.4016% and 98.5294%
Human NP cells; 25 nM, donor 2, day 3, single wells (Exp, Rep)
  Percent live (%): 97.6127% and 96.3918% and 89.1374% and 87.5648% and 97.9899% and 92.8571%
Human NP cells; 50 nM, donor 1, day 3, single wells (Exp, Rep)
  Percent live (%): 99.536% and 94.3223% and 95.1923% and 99.2108% and 99.6933% and 99.3363%
Human NP cells; 50 nM, donor 2, day 3, single wells (Exp, Rep)
  Percent live (%): 98.5163% and 97.4555% and 94.0054% and 88.1057% and 96.8127% and 94.0758%
Human NP cells; 100 nM, donor 1, day 3, single wells (Exp, Rep)
  Percent live (%): 98.9571% and 99.7976% and 95.6589% and 96.3247% and 98.866% and 99.2797%
Human NP cells; 100 nM, donor 2, day 3, single wells (Exp, Rep)
  Percent live (%): 99.5495% and 99.5885% and 95.3125% and 93.5614% and 98.018% and 96.1078%
Human NP cells; 200 nM, donor 1, day 3, single wells (Exp, Rep)
  Percent live (%): 96.7883% and 99.5461% and 93.2203% and 99.7674% and 98.7402% and 97.893%
Human NP cells; 200 nM, donor 2, day 3, single wells (Exp, Rep)
  Percent live (%): 98.9101% and 97.7221% and 91.7808% and 91.6988% and 97.8182% and 96.8701%
Human NP cells; 500 nM, donor 1, day 3, single wells (Exp, Rep)
  Percent live (%): 99.2% and 97.9245% and 96.5986% and 97.28% and 92.5651% and 91.0506%
Adult rat DRG neurons
  Cytotoxicity: does not induce cytotoxicity
